Earlier results as cited in publication PMC3583338 (Clinical pharmacology and therapeutics, 2008).

SMILES: CC(C)c1nc(CN(C)C(=O)N[C@H](C(=O)N[C@@H](Cc2ccccc2)C[C@H](O)[C@H](Cc2ccccc2)NC(=O)OCc2cncs2)C(C)C)cs1 [ritonavir]
- effect on OATP1B1 (OATP1B1): little or no effect
- P-gp mRNA expression (P-gp): moderately induced
- effect on OATP1B3 (OATP1B3): little or no effect
- inhibition of OATP-mediated fexofenadine transport (OATP): 13%
